Experimental findings from ChEMBL document CHEMBL1142764, “Anti-HIV properties of cationic fullerene derivatives” (Bioorg Med Chem Lett, 2005) are described below.

One test relates to CCRF-CEM. Kind of test: Cytostatic activity against CEM cell culture. Particulars: Homo sapiens. It is filed as functional.
For test [1], the system named is Human immunodeficiency virus 1. Nature of the test: Effective concentration against HIV-1. In kind it is functional, organism-based.
The subject of test [2] is Human immunodeficiency virus 2. Nature of the test: Effective concentration against HIV-2. It is filed as functional, organism-based.

SMILES strings stand for the structures. pEC50: −log10 of the molar value. Bounds are passed on as bounds.

`CC12C[N+](C)(C)CC34C5c6cc7c8c9c6-c6c5c5c%10c%11c6C6c%12c%13c%14c%15c%16c%17c%18c(c%19c%20c%21c%22c%23c%24c(c%10c%10c(c%12%11)c%14c%11c%10c%24c%22c%10c%20c%18c%15c%10%11)C5C35C=%23CC%215C%1914)C(C%17=C8C1(C[N+](C)(C)CC%16%131)C96)C72` (configuration not stated): the CC50 with CCRF-CEM turned out to be 12500 nM. Moreover, the pEC50 was 5.97 in test [1] and 5.60 in test [2].
Taken in the same sequence, the figures for `CC1C2c3cc4/c5c6c7c8c9c%10c6c4c4c3C3=C6c%11c%12c%13c%14c%15c(c9c9c%16c8c(c8/c(c%17c%18c%19c(c(c%11c%11c%19c%19c%17c8c%16c(c%149)c%19c%13%11)C62)C1C%181C[N+](C)(C)C1)=C\C/C=5)C7)C%10C4C31C[N+](C)(C)CC%12%151` (configuration not stated) were 2930 nM, 6.68 and 6.70.
`C[N+]1(C)CC23C4=C5c6c7c8c9c%10c%11c%12c%13c%14c%15c%16c%17c%18c%19c%20c%21c%22c%23c%24c(c6C6%25C[N+](C)(C)CC%236C%21C6C%21=C%20C%18C%18C%20=C%21C(C4c4c%20c(c-%13c(c42)C%12C9C73C1)C%18C%14%17)C6C5%25)c8c1c%10c(c%11%15)c2c%16c%19c%22c2c%241` (configuration not stated) had a CC50 in the test on CCRF-CEM of more than 125000 nM. In addition, the pEC50 in test [1] and in test [2] was less than 4.60 throughout.
With `CC1C2c3cc4c5c6c3C3=C7c8c9c%10c%11c%12c%13c%14c%15c(c-5c5c%16c%15c%15c%17c%18c%19c%20c%21c%22c(c(c8c8c%22c%22c%20c%18c%18c%15c%14c%11c%18c%22c%108)C72)C1C%211CC=%19C1(C%16%17)C1C[N+](C)(C)CC451)C%13C6C31C[N+](C)(C)CC9%121` (configuration not stated), the CC50 in the test on CCRF-CEM is 9040 nM. Besides, the pEC50 is 6.46 in test [1] and 6.15 in test [2].
